The values below come from patent US5871779A, “Treatment of arthropathies with vanadate compounds or analogues thereof” (Mount Sinai Hospital Corporation, priority 1996, dated 1999).

In one series the test system is collagenase. Kind of series: collagenase production by chondrocytes (ELISA). Type of series: cell-based, bovine. The settings on record: for production of metalloproteases, such as collagenase: summary statement. In short, it runs like this: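 Bovine articular chondrocytes, orthovanadate 100 μM pretreatment 2 h, then IL 1 (10 ng/ml) or PMA ([…]). Collagenase by ELISA of medium after 24 h; PLA2 as 3H-AA released over 10 min in 1 mg/ml BSA medium; PGE2 by RIA of supernatant after 6 h in Ham's F12.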

The subject of series [1] is non-proliferating chondrocytes. Kind of series: viability of non-proliferating chondrocytes (high cell density). The format is cell-based. Particulars: 0-50 μM, 48 hours. On the procedure:
(§1) In order to compare the effect of orthovanadate on non-proliferating and proliferating chondrocytes, chondrocytes were plated at both high cell density (2×10^6 to 4×10^6 cells/per well on a six well plate) (nonproliferating) and at a lower cell density (5×10^5 to 1×10^6 cells/per well on a six well plate) (proliferating) and then maintained for 48 hours. The cells were then incubated in media (HAMS F12) containing 0-50 μM Orthovanadate for an additional 48 hours. The cells were harvested and the number of viable cells determined.

Series [2] has as its system proliferating chondrocytes. Kind of series: viability / proliferation of proliferating chondrocytes (low cell density). The settings on record: for proliferation of cells, such as chondrocytes: summary statement. Type of series: cell-based. The procedure:
as §1

Another series has as its system P388 (WT). The series is described as follows: MTT cytotoxicity assay, P388 (WT). The settings on record: P388 (WT), 72 hours; read-out: IC50 Value. The format is cell-based, murine. The procedure, abridged:
(§2)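 Growth inhibition is scored colorimetrically: MTT reduction over 4 h following 72 h continuous drug exposure (0.05-100 μM), with DMSO-dissolved formazan measured at 570 nm. The IC50 is the 50% growth inhibition concentration on a % control plot, averaged over three independent assays.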

Another series has as its system P388 (ADR). The series is described as follows: MTT cytotoxicity assay, P388 (ADR). Type of series: cell-based, murine. The settings on record: P388 (ADR), 72 hours; read-out: IC50 Value. In short, it runs like this: as §2
The next series concerns Lewis lung. Kind of series: MTT cytotoxicity assay, Lewis lung. Type of series: cell-based, murine. The settings on record: 72 hours. The procedure:
(§3) The relative cytotoxicity of various compounds on tumor cell lines was investigated as follows. Cytotoxicity was measured by the MTT microculture tetrazolium colorimetric assay for all cell lines. The relative cytotoxicity of Na3 VO4 and VOSO4 was investigated using the following tumor cell lines: P388(WT) murine leukemia, P388 (ADR) murine leukemia, Lewis murine lung, MCF7 (WT) human breast, […] human lung, K562 human erythroleukemia, A431 human epidermal, LS180 human colon and SK-OV-3 human ovarian. The relative cytotoxicity of doxorubicin, Na3 VO4 and VOSO4 was investigated using the following tumor cell lines: P388(WT) murine leukemia, P388 (ADR) murine leukemia, MCF7(WT) human breast and MCF7 (ADR) human breast. The relative cytotoxicity of BMOV, BEOV and naglivan was investigated using the following tumor cell lines: P388(WT) murine leukemia, P388 (ADR) murine leukemia, Lewis murine lung, H460 human lung, K562 human erythroleukemia, and SK-OV-3 human ovarian.
(§4) The cells were plated (number of cells/well was different from cell line to cell depending on the dividing rate) in a 96-well microculture plate 24 hours prior to the delivery of the vanadium compounds. Serial concentrations of solutions of the test compounds (0.05-100 μM) were delivered to the corresponding wells. A blank column (without cells) and a control column (with cells without vanadium) were left. The cells were incubated for 72 hours continuously. An MTT solution was added to each well after this incubation period and the cells were incubated for 4 more hours for the completion of the dyeing process. The medium was removed find DMSO was added to each well. The absorbance of each well was read with a Titertek Multiskan (310C) spectrophotometer at 570 nm. The percentage of the absorbance of each vanadium concentration relative to the control calculated and the value of the 50% growth inhibition concentration (IC50) was obtained from the % control versus concentration plot. Each assay was repeated three times and the reported IC50 values were the mean of these three runs.

In the next series the test system is H460. Kind of series: MTT cytotoxicity assay, H460. The format is cell-based, human. Particulars: H460, 72 hours. The procedure:
as §3, §4

The next series relates to K562. The series is described as follows: MTT cytotoxicity assay, K562. The format is cell-based, human. The settings on record: K562, 72 hours. On the procedure: as §3
as §4, with “Serial concentrations of solutions of the test compounds (0.05-100 μM) were delivered to the corresponding wells.” left out

A further series has as its system SK-OV-3. Kind of series: MTT cytotoxicity assay, SK-OV-3. The settings on record: SK-OV-3, 72 hours. Type of series: cell-based, human. On the procedure: as §3, §4
Series [3] is described as follows: tolerability of BMOV and NAC in arthritic rats. Type of series: in vivo. The procedure:
Rats with definite arthritis on Day 10 post immunization were randomized into two groups. Control rats (n=8) received only NAC at a dose of 100 mg/kg/day s.c. NAC was prepared as a 3% aqueous solution. The experimental group (n=9) received NAC at 100 mg/kg/day s.c., as well as BMOV subcutaneously at 10 mg/kg/day. BMOV was solubilized in a 5% dextrose solution at 50° C.

Some results are limits rather than exact numbers.

In the case of `[Na+].[Na+].[Na+].[O]=[V]([O-])([O-])[O-]` [orthovanadate, sodium orthovanadate], the “inhibition of collagenase production” value in the series on collagenase (100 μM, IL 1 or PMA stimulated) is listed as “completely inhibited”. Moreover, the “production of metalloproteases, such as collagenase” value in the series with collagenase is given as “inhibit”. Also, in series [1], the “effect on chondrocytes plated at high cell density” value was “did not effect”. Further, the “toxicity to cells plated at low cell density” value in series [2] (0-50 μM, 48 hours) is “toxic”. In series [2], the “proliferation of cells, such as chondrocytes” value is on record as “inhibit”. The IC50 came out at 5.5 µM in the series on P388 (WT); 14.8 µM in the series with P388 (ADR); 42.3 µM in the series on Lewis lung; 1.5 µM in the series with H460; 100 µM in the series on K562; 2 µM in the series with SK-OV-3.

Consider `Cc1occc(=O)c1[O-].Cc1occc(=O)c1[O-].[O]=[V+2]` [BMOV, bis(methylmaltolato) oxovanadium (IV)], for which the “production of metalloproteases, such as collagenase” value in the series with collagenase is recorded as “inhibit”. In addition, the “proliferation of cells, such as chondrocytes” value in [2] was “inhibit”. Further, the IC50 was 31.1 µM with P388 (WT); 61.2 µM in the series on P388 (ADR); 142 µM in the series on Lewis lung; 6.4 µM in the series on H460; over 1000 µM in the series on K562; 2.6 µM in the series with SK-OV-3. Moreover, the results for the diarrhea entry in [3] (BMOV 10 mg/kg/day) and in series [3] (BMOV 15 mg/kg/day from Day 11) were “not observed” and “minor diarrhea”, respectively.
